The results in this text go back to publication PMC11122421 (Marine Drugs, 2024).

The target of one series is T1, rat α7 nAChRs (Rattus norvegicus, UniProt Q05941).
T1 construct: expressed in transfected cells; host or cells: Xenopus laevis oocytes injected with cRNA; plasmids from J. Michael McIntosh (University of Utah)
Kind of series: cell-based. It counts as cell-based.

Another series addresses T2, rat α6/α3β4 nAChRs (Rattus norvegicus, UniProt P04757+P12392+P43143).
T2 construct: expressed in transfected cells; host or cells: Xenopus laevis oocytes injected with cRNA; plasmids from J. Michael McIntosh (University of Utah)
It counts as cell-based.

For a further series, the target named is T3, rat α3β2 nAChR (Rattus norvegicus, UniProt P04757+P12390).
T3 construct: expressed in transfected cells; host or cells: Xenopus laevis oocytes injected with cRNA; plasmids from J. Michael McIntosh (University of Utah)
The experiment in a line: cell-based.

Assay in series [1]: not given
The source holds these as a separate data set.

Series [2] addresses T4, α7 nAChRs in rat brain slices (Rattus norvegicus, UniProt Q05941).
T4 construct: from tissue; host or cells: frozen brain slices of ten-week-old rats (hippocampus, striatum, cortex, cerebellum)

The structures appear in SMILES notation. “And” between values parts separate entries of the source, which are not always exact repeats. Equal values may be shown once. Where a SMILES comes first, the peptide text is derived from it. Bridges are numbered along the chain shown (N, C = ends). The star is where a group is joined. X2 = CN(C)c1ccc2c(-c3cc(C(=O)*)ccc3C(=O)[O-])c3ccc(=[N+](C)C)cc-3oc2c1; X1 = C[N+]1=C(/C=C/C=C2/N(CCCCCC(=O)*)c3ccccc3C2(C)C)C(C)(C)c2ccccc21; BODIPY(FL) = CC1=CC(C)=[N+]2C1=Cc1ccc(CCC(=O)*)n1[B-]2(F)F

T1 sequence (Q05941 23-502): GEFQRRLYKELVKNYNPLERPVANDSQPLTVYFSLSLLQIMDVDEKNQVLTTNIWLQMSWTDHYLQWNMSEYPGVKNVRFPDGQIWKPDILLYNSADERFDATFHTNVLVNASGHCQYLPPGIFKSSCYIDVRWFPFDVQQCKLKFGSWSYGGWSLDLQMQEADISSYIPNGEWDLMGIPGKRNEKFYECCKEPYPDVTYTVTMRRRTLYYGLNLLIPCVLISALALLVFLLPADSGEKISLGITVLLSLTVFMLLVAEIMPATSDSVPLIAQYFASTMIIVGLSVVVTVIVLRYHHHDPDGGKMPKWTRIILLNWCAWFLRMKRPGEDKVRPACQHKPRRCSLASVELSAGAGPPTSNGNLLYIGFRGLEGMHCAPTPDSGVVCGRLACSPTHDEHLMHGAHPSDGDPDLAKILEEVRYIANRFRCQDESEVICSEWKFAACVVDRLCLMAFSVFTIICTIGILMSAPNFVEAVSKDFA
T3 sequence (P04757 26-499 limits assumed): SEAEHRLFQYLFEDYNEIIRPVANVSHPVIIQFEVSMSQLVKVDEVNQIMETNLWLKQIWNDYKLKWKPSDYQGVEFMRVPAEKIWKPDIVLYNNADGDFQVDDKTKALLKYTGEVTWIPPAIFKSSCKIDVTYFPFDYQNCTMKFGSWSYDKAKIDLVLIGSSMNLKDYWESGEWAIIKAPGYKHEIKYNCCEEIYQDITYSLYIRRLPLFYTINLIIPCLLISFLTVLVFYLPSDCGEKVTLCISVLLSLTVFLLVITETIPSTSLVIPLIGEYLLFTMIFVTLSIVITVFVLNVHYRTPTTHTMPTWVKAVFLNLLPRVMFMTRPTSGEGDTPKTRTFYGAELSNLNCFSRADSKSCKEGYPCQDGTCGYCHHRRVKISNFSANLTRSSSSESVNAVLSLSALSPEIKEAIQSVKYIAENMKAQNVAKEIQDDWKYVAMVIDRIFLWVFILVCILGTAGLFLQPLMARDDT
T3 sequence (P12390 25-500 limits assumed): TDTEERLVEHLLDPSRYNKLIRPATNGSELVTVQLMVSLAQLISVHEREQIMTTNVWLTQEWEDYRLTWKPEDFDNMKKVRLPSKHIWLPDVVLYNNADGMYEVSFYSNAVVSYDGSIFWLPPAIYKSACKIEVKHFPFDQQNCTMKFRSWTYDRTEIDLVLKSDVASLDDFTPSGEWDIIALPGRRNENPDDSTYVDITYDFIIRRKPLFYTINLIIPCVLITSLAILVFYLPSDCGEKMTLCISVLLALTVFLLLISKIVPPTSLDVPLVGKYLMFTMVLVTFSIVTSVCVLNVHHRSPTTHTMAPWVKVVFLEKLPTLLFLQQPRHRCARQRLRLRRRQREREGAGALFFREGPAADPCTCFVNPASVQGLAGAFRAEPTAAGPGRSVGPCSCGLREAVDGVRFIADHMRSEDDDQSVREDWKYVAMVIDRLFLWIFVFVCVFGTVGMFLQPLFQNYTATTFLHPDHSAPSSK
T4 sequence (Q05941 23-502): as the sequence (Q05941 23-502) above
T2 sequence (P43143+P04757 fused with the stated changes): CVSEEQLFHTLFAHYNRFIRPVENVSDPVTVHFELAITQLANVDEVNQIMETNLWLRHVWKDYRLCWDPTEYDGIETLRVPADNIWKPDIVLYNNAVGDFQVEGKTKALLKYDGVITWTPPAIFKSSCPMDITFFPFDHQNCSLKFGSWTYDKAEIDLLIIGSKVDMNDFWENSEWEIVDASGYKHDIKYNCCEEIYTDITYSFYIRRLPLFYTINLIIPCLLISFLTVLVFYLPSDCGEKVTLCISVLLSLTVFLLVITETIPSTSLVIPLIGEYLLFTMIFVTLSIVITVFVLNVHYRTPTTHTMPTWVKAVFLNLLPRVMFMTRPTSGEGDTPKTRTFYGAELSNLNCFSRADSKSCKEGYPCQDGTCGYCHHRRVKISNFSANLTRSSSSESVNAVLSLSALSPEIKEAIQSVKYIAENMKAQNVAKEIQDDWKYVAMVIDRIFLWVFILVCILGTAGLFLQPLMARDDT
T2 sequence (P12392 21-495): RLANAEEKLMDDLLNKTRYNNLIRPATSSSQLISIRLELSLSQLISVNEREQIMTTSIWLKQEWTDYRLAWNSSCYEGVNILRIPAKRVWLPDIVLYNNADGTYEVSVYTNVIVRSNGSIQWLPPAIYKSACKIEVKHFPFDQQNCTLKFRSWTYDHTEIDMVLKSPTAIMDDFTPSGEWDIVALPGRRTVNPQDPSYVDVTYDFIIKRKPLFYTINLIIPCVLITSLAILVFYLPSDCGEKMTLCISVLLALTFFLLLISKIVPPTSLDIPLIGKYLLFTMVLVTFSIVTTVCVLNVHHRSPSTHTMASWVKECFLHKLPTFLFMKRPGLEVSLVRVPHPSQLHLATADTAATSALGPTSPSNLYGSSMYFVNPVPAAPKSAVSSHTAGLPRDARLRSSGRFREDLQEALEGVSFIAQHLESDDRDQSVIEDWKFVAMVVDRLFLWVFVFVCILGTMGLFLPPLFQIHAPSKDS

As a reminder, the IC50 is the concentration needed to halve the response being measured. Higher therefore signals lower potency. `CC1=CC(C)=[N+]2C1=Cc1ccc(CCC(=O)NCC(=O)N[C@H]3CSSC[C@@H]4NC(=O)[C@@H]5CCCN5C(=O)[C@@H]5CCCN5C(=O)[C@H](CC(N)=O)NC(=O)[C@H](CO)NC(=O)[C@H](CSSC[C@@H](C(N)=O)NC(=O)[C@H](Cc5c[nH]cn5)NC(=O)[C@H](CCC(=O)O)NC(=O)[C@H](Cc5c[nH]cn5)NC(=O)[C@H](C)NC4=O)NC3=O)n1[B-]2(F)F` [LvIB-B] ({BODIPY(FL)}-GCCSNPPCAHEHC-NH2; disulfide 2-8, 3-13) returned an emission wavelength (Em) of 510 nm. Further, on rat α7 nAChRs, it took 187 nM to reach half-maximal inhibition (IC50) and the “inhibition rate of ACh-evoked current” value was determined as 96 ± 0.11%. This molecule also displayed an inhibition rate against rat α6/α3β4 nAChRs of 0 ± 2%. Also, at rat α3β2 nAChR, the inhibition rate amounted to 64 ± 4%; the IC50 is 2550 nM and 10900 nM. Also, the excitation wavelength (Ex) in series [1] came to 505 nm.

The molecule `C[C@@H]1NC(=O)[C@@H]2CSSC[C@H](NC(=O)CNC(=O)CCCCCN3/C(=C/C=C/C4=[N+](C)c5ccccc5C4(C)C)C(C)(C)c4ccccc43)C(=O)N[C@@H](CSSC[C@@H](C(N)=O)NC(=O)[C@H](Cc3c[nH]cn3)NC(=O)[C@H](CCC(=O)O)NC(=O)[C@H](Cc3c[nH]cn3)NC1=O)C(=O)N[C@@H](CO)C(=O)N[C@@H](CC(N)=O)C(=O)N1CCC[C@H]1C(=O)N1CCC[C@H]1C(=O)N2` [LvIB-C] (X1-GCCSNPPCAHEHC-NH2; disulfide 2-8, 3-13) registered an emission wavelength (Em) of 570 nm. At rat α7 nAChRs, the “Hill Slope” value is 1.39 (1.05–1.72), 298 nM corresponded to half-maximal inhibition (IC50), the “inhibition rate of ACh-evoked current” value is recorded as 94 ± 0.20% and the “time to ~90% current restoration after block (recovery/washout)” value is recorded as not above 14 min. This molecule also gave an inhibition rate against rat α6/α3β4 nAChRs of 10 ± 0.3%. At rat α3β2 nAChR, the inhibition rate worked out at 50 ± 2%; the half-maximal inhibitory concentration (IC50) was 10900 nM and 2550 nM. Further, the “fluorescence labelling of brain regions” value in series [2] was “distinct fluorescence distribution in the hippocampus, striatum, and cortex”. Moreover, the excitation wavelength (Ex) in series [1] was 550 nm.

`C[C@@H]1NC(=O)[C@@H]2CSSC[C@H](NC(=O)CNC(=O)c3ccc(C(=O)[O-])c(-c4c5ccc(=[N+](C)C)cc-5oc5cc(N(C)C)ccc45)c3)C(=O)N[C@@H](CSSC[C@@H](C(N)=O)NC(=O)[C@H](Cc3c[nH]cn3)NC(=O)[C@H](CCC(=O)O)NC(=O)[C@H](Cc3c[nH]cn3)NC1=O)C(=O)N[C@@H](CO)C(=O)N[C@@H](CC(N)=O)C(=O)N1CCC[C@H]1C(=O)N1CCC[C@H]1C(=O)N2` [LvIB-R] (X2-GCCSNPPCAHEHC-NH2; disulfide 2-8, 3-13) gave an emission wavelength (Em) of 580 nm. Moreover, on rat α7 nAChRs, the “Hill Slope” value is given as 0.89 (0.67–1.14), it took 643 nM to reach half-maximal inhibition (IC50), the “inhibition rate of ACh-evoked current” value came to 87 ± 0.24% and the “time to ~90% current restoration after block (recovery/washout)” value is not above 14 min. Besides, the “fluorescence labelling of brain regions” value in series [2] is “distinct fluorescence distribution in the hippocampus, striatum, and cortex”. The excitation wavelength (Ex) in series [1] amounted to 555 nm.
